Experimental data from US12281149B2, “Modulators of G-protein coupled receptors” (priority 2021, dated 2025).
Like-named read-outs stand apart in the source and are kept apart here. *1 amine or outer side, *2 acyl side, *3 side chain or, on linkers, in order; H or OH if unused. Where a SMILES comes first, the peptide text is derived from it. Side-chain parts run from the residue outwards. [ ]: non-standard residue; d: D form. The star is where a group is joined. Isobutyryl(2-(3-CN-5-F-Ph)) = CC(C)(C(=O)*)c1cc(F)cc(C#N)c1; C20 diacid = O=C(O)CCCCCCCCCCCCCCCCCCC(=O)*; X75 = C[C@@](Cc1nn[nH]n1)(N[*:1])C(=O)[*:2]; αMePhe(2-F) = C[C@](N)(Cc1ccccc1F)C(=O)O; γGlu = O=C(O)[C@H](CCC(=O)[*:2])N[*:1]; X36 = O=C(C1(c2ccc(Cl)cc2)CCCCC1)*; NH(3-Cl-phenyl) = Clc1cccc(N*)c1; X46 = O=C(C1(c2ccccc2)CCOCC1)*; X8 = O=C(CCNCc1cc(O)cc(F)c1)*; AEEA = NCCOCCOCC(=O)O; Aib = CC(C)(N)C(=O)O; CO = O=C([*:1])[*:2]; GABA = NCCCC(=O)O; βAla = NCCC(=O)O

What was measured:
Assay type in all cases: cell-based
[1] = molecular target: T1, GLP-1 receptor (Homo sapiens, UniProt P43220); assay: HitHunter cAMP assay, GLP-1 receptor; conditions: for Emax: read-out: Emax GLP-1R
T1 sequence (P43220 24-463): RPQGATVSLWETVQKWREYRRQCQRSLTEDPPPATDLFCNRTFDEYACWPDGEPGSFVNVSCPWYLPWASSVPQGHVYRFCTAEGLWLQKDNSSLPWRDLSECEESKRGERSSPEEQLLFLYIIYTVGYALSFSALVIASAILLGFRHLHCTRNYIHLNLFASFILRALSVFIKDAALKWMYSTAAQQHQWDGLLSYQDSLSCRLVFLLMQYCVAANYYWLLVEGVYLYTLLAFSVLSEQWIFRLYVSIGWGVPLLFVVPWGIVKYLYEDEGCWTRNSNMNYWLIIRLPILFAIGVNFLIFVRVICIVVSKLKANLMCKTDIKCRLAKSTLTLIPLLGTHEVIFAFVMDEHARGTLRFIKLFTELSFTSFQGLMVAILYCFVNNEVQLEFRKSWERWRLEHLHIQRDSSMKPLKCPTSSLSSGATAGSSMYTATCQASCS

[2] = molecular target: T2, GIP receptor (Homo sapiens, UniProt P48546); assay: HitHunter cAMP assay, GIP receptor; conditions: for Emax: read-out: Emax GIP-1R
T2 sequence (P48546 22-466): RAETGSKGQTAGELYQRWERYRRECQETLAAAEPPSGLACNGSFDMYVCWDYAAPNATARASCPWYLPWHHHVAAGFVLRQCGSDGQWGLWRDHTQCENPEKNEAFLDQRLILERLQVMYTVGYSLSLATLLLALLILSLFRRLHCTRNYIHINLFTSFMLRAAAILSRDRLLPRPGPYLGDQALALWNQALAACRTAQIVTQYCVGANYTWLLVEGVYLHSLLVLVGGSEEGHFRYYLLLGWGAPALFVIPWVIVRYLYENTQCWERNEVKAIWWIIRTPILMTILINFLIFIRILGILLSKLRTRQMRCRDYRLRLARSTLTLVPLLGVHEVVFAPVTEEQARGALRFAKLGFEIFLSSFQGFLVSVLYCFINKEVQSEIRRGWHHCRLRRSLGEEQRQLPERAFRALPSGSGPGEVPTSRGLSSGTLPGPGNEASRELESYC

[3] = molecular target: T2, GIP receptor; assay: PathHunter β-arrestin assay, GIP receptor; design: host or cells: PathHunter CHO-K1 GIPR β-Arrestin Cell Line
[4] = molecular target: T1, GLP-1 receptor; assay: PathHunter β-arrestin assay, GLP-1 receptor; design: host or cells: PathHunter CHO-K1 GLP1R β-Arrestin Cell Line
[5] = CHO cells stably expressing human GLP-1 receptor, cAMP accumulation, 30 min, read-out: EC50 GLP-1R
[6] = CHO cells, cAMP, normalized to maximum signal from GLP-1 (high) and DMSO (low)
[7] = CHO cells stably expressing GIP receptor, cAMP accumulation, 30 min, read-out: EC50 GIP-1R
[8] = CHO cells, cAMP, normalized to maximum signal from GIP (high) and DMSO (low)
[9] = β-arrestin-2 recruitment, PathHunter CHO-K1 GIPR β-Arrestin Cell Line, 90 min at 37° C., normalized to GIP, read-out: GIPR β Arrestin EC50
[10] = β-arrestin-2 recruitment, PathHunter CHO-K1 GLP1R β-Arrestin Cell Line, 90 min at 37° C., normalized to GLP-1, read-out: GLP-1R β Arrestin EC50

Row | SMILES | EC50 [1, 5] | Emax [1, 6] | EC50 [2, 7] | Emax [2, 8] | EC50 [3, 9] | EC50 [4, 10] | EC50 [1] | Emax ([1]; CHO) | EC50 [2] | Emax ([2]; CHO) | EC50 [3] | EC50 [4]
1 | CC[C@H](C)[C@H](NC(=O)[C@H](CC(C)C)NC(=O)[C@H](Cc1c[nH]c2ccccc12)NC(=O)[C@H](CCC(N)=O)NC(=O)[C@@H](NC(=O)[C@H](Cc1ccccc1)NC(=O)[C@H](C)NC(=O)[C@H](CCCCNC(=O)COCCOCCNC(=O)COCCOCCNC(=O)CC[C@H](NC(=O)CCCCCCCCCCCCCCCCCCC(=O)O)C(=O)O)NC(=O)[C@H](CCC(N)=O)NC(=O)[C@H](C)NC(=O)[C@@H](NC(=O)[C@H](CCCCN)NC(=O)[C@H](CC(=O)O)NC(=O)[C@H](CC(C)C)NC(=O)C(C)(C)NC(=O)[C@@H](NC(=O)[C@H](CO)NC(=O)[C@H](Cc1ccc(O)cc1)NC(=O)[C@H](CC(=O)O)NC(=O)[C@H](CO)NC(=O)[C@@H](NC(=O)[C@H](Cc1ccccc1)NC(=O)[C@@H](NC(=O)CNC(=O)[C@H](CCC(=O)O)NC(=O)CCNCc1cc(O)cc(F)c1)[C@@H](C)O)[C@@H](C)O)[C@@H](C)CC)[C@@H](C)CC)C(C)C)C(=O)N[C@@H](C)C(=O)NCC(=O)NCC(=O)N1CCC[C@H]1C(=O)N[C@@H](CO)C(=O)N[C@@H](CO)C(=O)NCC(=O)N[C@@H](C)C(=O)N1CCC[C@H]1C(=O)N1CCC[C@H]1C(=O)N1CCC[C@H]1C(=O)N[C@@H](CO)C(N)=O [Compound 277] (X8-EGTFTSDYSI[Aib]LDKIAQK([AEEA-AEEA-γGlu-C20 diacid])AFVQWLIAGGPSSGAPPPS-NH2) | 0.001 to 0.01 µM | 89% | 0.1 to 1 µM | 6% | > 1 µM | > 1 µM | – | – | – | – | – | –
2 | CC[C@H](C)[C@H](NC(=O)[C@H](CC(C)C)NC(=O)[C@H](Cc1c[nH]c2ccccc12)NC(=O)[C@H](CCC(N)=O)NC(=O)[C@@H](NC(=O)[C@H](Cc1ccccc1)NC(=O)[C@H](C)NC(=O)[C@H](CCCCNC(=O)COCCOCCNC(=O)COCCOCCNC(=O)CC[C@H](NC(=O)CCCCCCCCCCCCCCCCCCC(=O)O)C(=O)O)NC(=O)[C@H](CCC(N)=O)NC(=O)[C@H](C)NC(=O)[C@@H](NC(=O)[C@H](CCCCN)NC(=O)[C@H](CC(=O)O)NC(=O)[C@H](CC(C)C)NC(=O)C(C)(C)NC(=O)[C@@H](NC(=O)[C@H](CO)NC(=O)[C@H](Cc1ccc(O)cc1)NC(=O)[C@H](CC(=O)O)NC(=O)[C@H](CO)NC(=O)[C@@H](NC(=O)[C@](C)(Cc1ccccc1F)NC(=O)[C@@H](NC(=O)CNC(=O)[C@H](CCC(=O)O)NC(=O)CCNC(=O)C1(c2ccccc2)CCOCC1)[C@@H](C)O)[C@@H](C)O)[C@@H](C)CC)[C@@H](C)CC)C(C)C)C(=O)N[C@@H](C)C(=O)NCC(=O)NCC(=O)N1CCC[C@H]1C(=O)N[C@@H](CO)C(=O)N[C@@H](CO)C(=O)NCC(=O)N[C@@H](C)C(=O)N1CCC[C@H]1C(=O)N1CCC[C@H]1C(=O)N1CCC[C@H]1C(=O)N[C@@H](CO)C(N)=O [Compound 178] ({X46-βAla}-EGT[αMePhe(2-F)]TSDYSI[Aib]LDKIAQK([AEEA-AEEA-γGlu-C20 diacid])AFVQWLIAGGPSSGAPPPS-NH2) | 0.0001 to 0.001 µM | 98% | 0.0001 to 0.001 µM | 105% | < 1 µM | > 1 µM | – | – | – | – | – | –
3 | CC[C@H](C)[C@H](NC(=O)[C@H](CC(C)C)NC(=O)[C@H](Cc1c[nH]c2ccccc12)NC(=O)[C@H](CCC(N)=O)NC(=O)[C@@H](NC(=O)[C@H](Cc1ccccc1)NC(=O)[C@H](C)NC(=O)[C@H](CCCCNC(=O)COCCOCCNC(=O)COCCOCCNC(=O)CC[C@H](NC(=O)CCCCCCCCCCCCCCCCCCC(=O)O)C(=O)O)NC(=O)[C@H](CCC(N)=O)NC(=O)[C@H](C)NC(=O)[C@@H](NC(=O)[C@H](CCCCN)NC(=O)[C@H](CC(=O)O)NC(=O)[C@H](CC(C)C)NC(=O)C(C)(C)NC(=O)[C@@H](NC(=O)[C@H](CO)NC(=O)[C@H](Cc1ccc(O)cc1)NC(=O)[C@H](CC(=O)O)NC(=O)[C@H](CO)NC(=O)[C@@H](NC(=O)[C@H](Cc1ccccc1)NC(=O)[C@@H](NC(=O)CNC(=O)[C@H](CCC(=O)O)NC(=O)CCCNC(=O)CNC(=O)Nc1cccc(Cl)c1)[C@@H](C)O)[C@@H](C)O)[C@@H](C)CC)[C@@H](C)CC)C(C)C)C(=O)N[C@@H](C)C(=O)NCC(=O)NCC(=O)N1CCC[C@H]1C(=O)N[C@@H](CO)C(=O)N[C@@H](CO)C(=O)NCC(=O)N[C@@H](C)C(=O)N1CCC[C@H]1C(=O)N1CCC[C@H]1C(=O)N1CCC[C@H]1C(=O)N[C@@H](CO)C(N)=O [Compound 273] ({NH(3-Cl-phenyl)-CO}-G[GABA]EGTFTSDYSI[Aib]LDKIAQK([AEEA-AEEA-γGlu-C20 diacid])AFVQWLIAGGPSSGAPPPS-NH2) | – | – | – | – | – | – | 0.001 to 0.01 µM | 106% | 0.001 to 0.01 µM | 99% | > 1 µM | > 1 µM
4 | CC[C@H](C)[C@H](NC(=O)[C@H](CC(C)C)NC(=O)[C@H](Cc1c[nH]c2ccccc12)NC(=O)[C@H](CCC(N)=O)NC(=O)[C@@H](NC(=O)[C@H](Cc1ccccc1)NC(=O)[C@H](C)NC(=O)[C@H](CCCCNC(=O)COCCOCCNC(=O)COCCOCCNC(=O)CC[C@H](NC(=O)CCCCCCCCCCCCCCCCCCC(=O)O)C(=O)O)NC(=O)[C@H](CCC(N)=O)NC(=O)[C@H](C)NC(=O)[C@@H](NC(=O)[C@H](CCCCN)NC(=O)[C@H](CC(=O)O)NC(=O)[C@H](CC(C)C)NC(=O)C(C)(C)NC(=O)[C@@H](NC(=O)[C@H](CO)NC(=O)[C@H](Cc1ccc(O)cc1)NC(=O)[C@H](CC(=O)O)NC(=O)[C@H](CO)NC(=O)[C@@H](NC(=O)[C@H](Cc1ccccc1)NC(=O)[C@@H](NC(=O)CNC(=O)[C@](C)(Cc1nn[nH]n1)NC(=O)CCNC(=O)C(C)(C)c1cc(F)cc(C#N)c1)[C@@H](C)O)[C@@H](C)O)[C@@H](C)CC)[C@@H](C)CC)C(C)C)C(=O)N[C@@H](C)C(=O)NCC(=O)NCC(=O)N1CCC[C@H]1C(=O)N[C@@H](CO)C(=O)N[C@@H](CO)C(=O)NCC(=O)N[C@@H](C)C(=O)N1CCC[C@H]1C(=O)N1CCC[C@H]1C(=O)N1CCC[C@H]1C(=O)N[C@@H](CO)C(N)=O [Compound 126] ({Isobutyryl(2-(3-CN-5-F-Ph))-βAla}-[X75]GTFTSDYSI[Aib]LDKIAQK([AEEA-AEEA-γGlu-C20 diacid])AFVQWLIAGGPSSGAPPPS-NH2) | 0.1 to 1 µM | 59% | 0.1 to 1 µM | 97% | > 1 µM | > 1 µM | – | – | – | – | – | –
5 | CC[C@H](C)[C@H](NC(=O)[C@H](CC(C)C)NC(=O)[C@H](Cc1c[nH]c2ccccc12)NC(=O)[C@H](CCC(N)=O)NC(=O)[C@@H](NC(=O)[C@H](Cc1ccccc1)NC(=O)[C@H](C)NC(=O)[C@H](CCCCNC(=O)COCCOCCNC(=O)COCCOCCNC(=O)CC[C@H](NC(=O)CCCCCCCCCCCCCCCCCCC(=O)O)C(=O)O)NC(=O)[C@H](CCC(N)=O)NC(=O)[C@H](C)NC(=O)[C@@H](NC(=O)[C@H](CCCCN)NC(=O)[C@H](CC(=O)O)NC(=O)[C@H](CC(C)C)NC(=O)C(C)(C)NC(=O)[C@@H](NC(=O)[C@H](CO)NC(=O)[C@H](Cc1ccc(O)cc1)NC(=O)[C@H](CC(=O)O)NC(=O)[C@H](CO)NC(=O)[C@@H](NC(=O)[C@H](Cc1ccccc1)NC(=O)[C@@H](NC(=O)CNC(=O)[C@H](CCC(=O)O)NC(=O)CCNC(=O)C1(c2ccc(Cl)cc2)CCCCC1)[C@@H](C)O)[C@@H](C)O)[C@@H](C)CC)[C@@H](C)CC)C(C)C)C(=O)N[C@@H](C)C(=O)NCC(=O)NCC(=O)N1CCC[C@H]1C(=O)N[C@@H](CO)C(=O)N[C@@H](CO)C(=O)NCC(=O)N[C@@H](C)C(=O)N1CCC[C@H]1C(=O)N1CCC[C@H]1C(=O)N1CCC[C@H]1C(=O)N[C@@H](CO)C(N)=O [Compound 174] ({X36-βAla}-EGTFTSDYSI[Aib]LDKIAQK([AEEA-AEEA-γGlu-C20 diacid])AFVQWLIAGGPSSGAPPPS-NH2) | 0.01 to 0.1 µM | 93% | 0.01 to 0.1 µM | 104% | > 1 µM | > 1 µM | – | – | – | – | – | –
